Results reported in US20260345795A1, “MULTIVALENCY FOR ENZYME INHIBITION” (Indiana University Research and Technology Corporation, priority 2022, published 2026).
Where “and” joins values, the source holds several entries; their conditions need not be identical. Equal values may be shown once. Entries after “also recorded” stand apart in the source; their conditions may differ. Read-outs that look alike come from different tables or passages of the source. Blank lines part the entries; values can stand above or below the compound they belong to.

Tests used:
Human plasmin = target: T1, Human plasmin (Homo sapiens, UniProt P00747); assay: Plasmin inhibition assay with chromogenic substrate S-2251, Dixon plot / Cornish-Bowden analysis; assay type: biochemical; conditions: role: inhibitor; for rp1: relative potency = Ki^AMB/Ki^multi: hetero-bivalent inhibitors relative to AMB; for rp2: relative potency = Ki^TXA or EACA/Ki^multi: hetero-bivalent inhibitors relative to TXA or EACA; for mode of inhibition (Cornish-Bowden plot): S-2251; for rp: relative potency = Ki^AMB/Ki^multi: benzamidine inhibitors relative to AMB; for rp/n: relative potency/number of benzamidine units: relative to AMB per benzamidine unit
T1 construct: a heavy chain (~60 kDa) comprising 5 kringle domains
T1 sequence (P00747 581-810 limits assumed): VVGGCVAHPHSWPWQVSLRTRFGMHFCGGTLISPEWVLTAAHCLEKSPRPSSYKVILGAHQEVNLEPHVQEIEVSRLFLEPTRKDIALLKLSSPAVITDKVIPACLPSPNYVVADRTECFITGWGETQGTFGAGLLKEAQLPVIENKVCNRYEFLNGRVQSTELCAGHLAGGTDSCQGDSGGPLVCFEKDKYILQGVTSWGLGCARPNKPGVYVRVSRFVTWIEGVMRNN
T1 sequence (P00747 97-580 limits assumed): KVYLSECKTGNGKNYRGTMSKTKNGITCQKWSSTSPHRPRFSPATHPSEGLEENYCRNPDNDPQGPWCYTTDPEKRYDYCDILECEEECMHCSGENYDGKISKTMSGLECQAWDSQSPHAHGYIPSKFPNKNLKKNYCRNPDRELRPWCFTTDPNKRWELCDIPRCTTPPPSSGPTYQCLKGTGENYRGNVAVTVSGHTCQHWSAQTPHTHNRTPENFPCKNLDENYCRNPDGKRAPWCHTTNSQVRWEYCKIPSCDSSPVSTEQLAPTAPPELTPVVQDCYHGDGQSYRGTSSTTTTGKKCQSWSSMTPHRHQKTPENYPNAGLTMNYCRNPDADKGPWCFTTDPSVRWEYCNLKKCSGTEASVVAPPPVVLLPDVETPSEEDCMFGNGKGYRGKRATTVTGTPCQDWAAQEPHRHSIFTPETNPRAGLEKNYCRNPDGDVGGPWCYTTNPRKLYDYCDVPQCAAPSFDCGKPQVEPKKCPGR
Procedure: Inhibition assays were performed on all synthesized multivalent affinity molecules in addition to free AMB and Pentamidine. […] Ki values were calculated for all multivalent affinity molecules via Dixon Plot analysis using the negative x-intersection point. […] A smaller Ki value indicates a higher degree of inhibition. Cornish-Bowden graphs (S/Vo vs I) were also plotted to verify the type of inhibition, i.e., competitive, uncompetitive, non-competitive, or mixed.
Parameters used to quantify multivalency, namely, relative potency (rp), and relative potency per unit (rp/n) were also computed. To evaluate the strength of the multivalent affinity molecules as compared to the monovalent affinity molecules, rp was used and is a ratio of Ki^mono to Ki^multi Ki of monovalent AMB was used for this calculation since AMB was utilized for synthesis of the multivalent affinity molecules. […] To better evaluate multivalency effects, rp/n was also computed to determine the benefit of linking multiple affinity moieties together.
Human plasmin (42.5 nM) over a range of inhibitor concentrations (0-2 mM) and chromogenic substrate concentrations (Chromogenix S-2251 100-500 μM) were utilized for Inhibition assays.
Human plasmin (42.5 nM) over a range of inhibitor concentrations (0-500 μM) and chromogenic substrate concentrations (Chromogenix S-2251 100-500 μM) were utilized for Inhibition assays.
In this example, homo-multivalent and hetero multivalent micelles were synthesized to determine their plasmin inhibition. […] After weighing and mixing the appropriate lipids amounts in chloroform, a lipid film was made by slowly evaporating chloroform while rotating the vial gently under air. The dried lipid film was placed in a desiccator under vacuum overnight. The lipid film was rehydrated using 2 mL PBS and was sonicated for 2 mins while heating at 60° C. to obtain more rapid and less polydisperse micelle formation by self-assembly. […] Human plasmin (42.5 nM) over a range of inhibitor concentrations (0-500 μM) and chromogenic substrate concentrations (Chromogenix S-2251 100-500 μM) were utilized for Inhibition assays.

thrombin = thrombin (Homo sapiens, UniProt P00734); assay: Thrombin inhibition assay with fluorogenic Thrombin Substrate III, Dixon plot analysis; assay type: biochemical; conditions: role: inhibitor; for Ki: PBS pH 7.4, 10% DMSO, read-out: Inhibition constant (Ki); for thrombin inhibition compared to plasmin: thrombin vs plasmin
Procedure: In this example, commercially available inhibitors shown in Table 1, Tri-AMB and all hetero-multivalent inhibitors were tested for their thrombin inhibition. Inhibition assays were performed using a fixed thrombin concentration of 0.25 U/mL in PBS pH 7.4 over a range of Thrombin Substrate III (fluorogenic) concentrations of 20-50 μM at 10% DMSO.

tPA = tPA (Homo sapiens, UniProt P00750); assay: tPA inhibition assay with chromogenic tPA substrate S-2288, Dixon plot analysis; assay type: biochemical; conditions: role: inhibitor; for Ki / tPA inhibition relative to another inhibitor: tPA 75 nM, S-2288 100-500 μM; for Ki: PBS pH 7.4, read-out: Inhibition constant (Ki); for tPA inhibition compared to plasmin: tPA vs plasmin
tPA, sequence (P00750 36-562, species assumed): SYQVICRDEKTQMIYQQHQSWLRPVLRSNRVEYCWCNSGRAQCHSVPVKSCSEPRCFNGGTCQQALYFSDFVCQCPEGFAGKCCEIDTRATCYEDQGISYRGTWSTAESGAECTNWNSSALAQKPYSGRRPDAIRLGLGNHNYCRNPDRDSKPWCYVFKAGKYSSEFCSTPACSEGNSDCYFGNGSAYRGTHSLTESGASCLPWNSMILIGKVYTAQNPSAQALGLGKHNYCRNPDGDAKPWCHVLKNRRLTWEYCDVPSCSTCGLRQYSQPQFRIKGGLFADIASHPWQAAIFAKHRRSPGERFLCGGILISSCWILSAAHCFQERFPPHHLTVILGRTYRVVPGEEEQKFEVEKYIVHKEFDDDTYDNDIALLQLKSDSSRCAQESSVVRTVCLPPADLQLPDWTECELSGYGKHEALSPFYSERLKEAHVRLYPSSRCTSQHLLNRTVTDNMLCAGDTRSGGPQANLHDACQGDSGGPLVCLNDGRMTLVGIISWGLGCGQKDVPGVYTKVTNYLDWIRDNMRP
Procedure: Inhibition assays were performed using a fixed tPA concentration of 75 nM in PBS pH 7.4 over a range of Chromogenic tPA Substrate (S-2288) concentrations of 100-500 μM.

plasmin = conditions: role: inhibitor; Alves et al.; cited from earlier work
[1] = target: LBS sites on other kringle domains of plasmin; conditions: role: inhibitor; cited from earlier work
[2] = treatment delayed beyond 3 hours; cited from earlier work
[3] = test system: light chain and kringle 5 of plasmin; conditions: cited from earlier work
[4] = hetero-bivalent inhibitors, human plasmin 42.5 nM, S-2251 100-500 μM, read-out: Inhibition constant (Ki)
[5] = thrombin 0.25 U/mL, Thrombin Substrate III 20-50 μM
[6] = substrate S-2251 100-500 μM, plasmin 42.5 nM, PBS pH 7.4, benzamidine inhibitors, Dixon plot, read-out: Inhibition constant (Ki)

Structure (SMILES): N=C(N)c1ccc(CN)cc1 [AMB, 4-aminomethyl benzamidine, reference compound]
Ki (Human plasmin; [4]): 1.4 ± 0.166 mM
mode of inhibition (Cornish-Bowden plot) (Human plasmin; plasmin 42.5 nM, PBS pH 7.4): competitive inhibitor
Ki (Human plasmin; [6]): 1.4 mM
Ki (thrombin; [5]): 344 ± 33 µM
Ki (tPA): 5210 ± 161 µM

Structure (SMILES): COCCOCCOCCOCCOCCOCCOCCOCCOCCOCCOCCOCCOCCOCCOCCOCCOCCOCCOCCOCCOCCOCCOCCOCCC(=O)NCc1ccc(C(=N)N)cc1 [m-dPEG24-AMB]
mode of inhibition (Cornish-Bowden plot) (Human plasmin; plasmin 42.5 nM, PBS pH 7.4): competitive inhibitor
rp: relative potency = Ki^AMB/Ki^multi (Human plasmin; plasmin, S-2251 100-500 μM): 2.7
rp/n: relative potency/number of benzamidine units (Human plasmin; plasmin, S-2251 100-500 μM): 2.7
Ki (Human plasmin; [6]): 0.521 ± 0.0849 mM

Structure (SMILES): N=C(N)c1ccc(OCCCCCOc2ccc(C(=N)N)cc2)cc1 [Pentamidine, reference compound]
mode of inhibition (Cornish-Bowden plot) (Human plasmin; plasmin 42.5 nM, PBS pH 7.4): competitive inhibitor
rp: relative potency = Ki^AMB/Ki^multi (Human plasmin; plasmin, S-2251 100-500 μM): 664.3
rp/n: relative potency/number of benzamidine units (Human plasmin; plasmin, S-2251 100-500 μM): 332.1
Ki (Human plasmin; [6]): 0.0021 mM and 0.0026 mM
thrombin inhibition relative to another inhibitor (thrombin; [5]): slightly stronger thrombin inhibitor than Tri-AMB
Ki (thrombin; [5]): 4.5 ± 2.3 µM
thrombin inhibition compared to plasmin (thrombin): slightly weaker thrombin inhibitors compared to plasmin
tPA inhibition relative to another inhibitor (tPA): stronger inhibitor than Tri-AMB
Ki (tPA): 48 ± 12 µM
tPA inhibition compared to plasmin (tPA): weaker tPA inhibitors compared to plasmin
fold stronger plasmin inhibitor than the strongest monovalent benzamidine (plasmin): 15 fold

Structure (SMILES): NC[C@H]1CC[C@H](C(=O)O)CC1 [TXA, Tranexamic acid]
Ki [1]: 0.75 µM
clinical trial outcome of delayed treatment [2]: ineffective or harmful

Structure (SMILES): N=C(N)c1ccc(CNC(=O)CCOCCOCCOCCOCCOCCOCCOCCOCCNC(=O)[C@H]2CC[C@H](CN)CC2)cc1 [TXA-dPEG8-AMB]
Ki (Human plasmin; [4]): 0.099 ± 0.0009 mM
rp1: relative potency = Ki^AMB/Ki^multi (Human plasmin; plasmin, S-2251 100-500 μM): 14
rp2: relative potency = Ki^TXA or EACA/Ki^multi (Human plasmin; plasmin, S-2251 100-500 μM): 216

Structure (SMILES): NCCCCCC(=O)O [EACA, ε-Aminocaproic Acid, reference compound]
Ki (thrombin; [5]): > 10000 µM

Structure (SMILES): N=C(N)c1ccc(CNC(=O)CCOCCOCCC(=O)NCc2ccc(C(=N)N)cc2)cc1 [Bis-dPEG2-AMB]
mode of inhibition (Cornish-Bowden plot) (Human plasmin; plasmin 42.5 nM, PBS pH 7.4): competitive inhibition; also recorded: competitive inhibitor
rp: relative potency = Ki^AMB/Ki^multi (Human plasmin; plasmin, S-2251 100-500 μM): 25.2
rp/n: relative potency/number of benzamidine units (Human plasmin; plasmin, S-2251 100-500 μM): 12.6

Structure (SMILES): COCCOCCOCCOCCOCCOCCOCCOCCOCCOCCOCCOCCC(=O)NCc1ccc(C(=N)N)cc1 [m-dPEG12-AMB]
mode of inhibition (Cornish-Bowden plot) (Human plasmin; plasmin 42.5 nM, PBS pH 7.4): competitive inhibitor
rp: relative potency = Ki^AMB/Ki^multi (Human plasmin; plasmin, S-2251 100-500 μM): 3.9
rp/n: relative potency/number of benzamidine units (Human plasmin; plasmin, S-2251 100-500 μM): 3.9
Ki (Human plasmin; [6]): 0.36 ± 0.0352 mM

Structure (SMILES): N=C(N)c1ccc(C(=O)O)cc1 [4-carboxy benzamidine, 4-Carboxybenzamidine, reference compound]
Ki (thrombin; [5]): 151 ± 4 µM

Structure (SMILES): NC[C@H]1CC[C@H](C(=O)NCCCC[C@H](NC(=O)[C@H]2CC[C@H](CN)CC2)C(N)=O)CC1 [Bis-TXA]
Ki (Human plasmin; TXA affinity molecules, human plasmin 42.5 nM, S-2251 100-500 μM, read-out: Inhibition constant (Ki)): 6.4 ± 2.03 mM
Ki (Human plasmin; human plasmin 42.5 nM, S-2251 100-500 μM, text value in mM, read-out: Ki (active site inhibition of plasmin)): 6.4 mM
rp: relative potency = Ki^TXA/Ki^multi (Human plasmin; plasmin, TXA affinity molecules relative to TXA, S-2251 100-500 μM): 3.3
rp/n: relative potency/number of TXA units (Human plasmin; plasmin, relative to TXA per TXA unit, S-2251 100-500 μM): 1.7

Structure (SMILES): N=C(N)c1ccc(CNC(=O)CCOCCOCCOCCOCCNC(=O)CCCCCN)cc1 [EACA-dPEG4-AMB]
Ki (Human plasmin; [4]): 0.233 ± 0.005 mM
rp1: relative potency = Ki^AMB/Ki^multi (Human plasmin; plasmin, S-2251 100-500 μM): 6
rp2: relative potency = Ki^TXA or EACA/Ki^multi (Human plasmin; plasmin, S-2251 100-500 μM): 305
Ki (thrombin; [5]): 5.6 ± 0.2 µM

Structure (SMILES): N=C(N)c1ccccc1 [Benzamidine]
subsite binding [3]: weak subsite binding

Continued, in another order:

Ki (Human plasmin; [4]): 0.075 mM and 0.0754 mM
rp1: relative potency = Ki^AMB/Ki^multi (Human plasmin; plasmin, S-2251 100-500 μM): 19
rp2: relative potency = Ki^TXA or EACA/Ki^multi (Human plasmin; plasmin, S-2251 100-500 μM): 285
Ki (thrombin; [5]): 78 ± 1.5 µM
Structure (SMILES): N=C(N)c1ccc(CNC(=O)CCOCCOCCOCCOCCOCCOCCOCCOCCOCCOCCOCCOCCOCCOCCOCCOCCOCCOCCOCCOCCOCCOCCOCCOCCOCCOCCOCCOCCOCCOCCOCCOCCOCCOCCOCCOCCNC(=O)[C@H]2CC[C@H](CN)CC2)cc1 [TXA-dPEG36-AMB]

mode of inhibition (Cornish-Bowden plot) (Human plasmin; plasmin 42.5 nM, PBS pH 7.4): competitive inhibitor
rp: relative potency = Ki^AMB/Ki^multi (Human plasmin; plasmin, S-2251 100-500 μM): 27.6
rp/n: relative potency/number of benzamidine units (Human plasmin; plasmin, S-2251 100-500 μM): 9.2
Ki (Human plasmin; [6]): 0.0505 ± 0.014 mM
Structure (SMILES): N=C(N)c1ccc(CNC(=O)CCOCCOCCOCCOCCNC(=O)CN(CC(=O)NCCOCCOCCOCCOCCC(=O)NCc2ccc(C(=N)N)cc2)CC(=O)NCCOCCOCCOCCOCCC(=O)NCc2ccc(C(=N)N)cc2)cc1 [Tri-dPEG4-AMB]

Ki (Human plasmin; [4]): 0.207 mM
rp1: relative potency = Ki^AMB/Ki^multi (Human plasmin; plasmin, S-2251 100-500 μM): 7
rp2: relative potency = Ki^TXA or EACA/Ki^multi (Human plasmin; plasmin, S-2251 100-500 μM): 103
Ki (thrombin; [5]): 46 ± 1.5 µM
tPA inhibition relative to another inhibitor (tPA): stronger tPA inhibitor than TXA-PEG4-AMB
Ki (tPA): 128 ± 11 µM
Structure (SMILES): N=C(N)c1ccc(CNC(=O)CCOCCOCCOCCOCCOCCOCCOCCOCCOCCOCCOCCOCCNC(=O)[C@H]2CC[C@H](CN)CC2)cc1 [TXA-dPEG12-AMB]

Ki (thrombin; [5]): 10.6 ± 2 µM
Ki (tPA): 112 ± 21 µM
Structure (SMILES): N=C(N)c1ccc(CNC(=O)CN(CC(=O)NCc2ccc(C(=N)N)cc2)CC(=O)NCc2ccc(C(=N)N)cc2)cc1 [Tri-AMB]
thrombin inhibition compared to plasmin (thrombin): slightly weaker thrombin inhibitors compared to plasmin
tPA inhibition compared to plasmin (tPA): weaker tPA inhibitors compared to plasmin

Ki (Human plasmin; [4]): 0.042 ± 0.0124 mM
rp1: relative potency = Ki^AMB/Ki^multi (Human plasmin; plasmin, S-2251 100-500 μM): 33
rp2: relative potency = Ki^TXA or EACA/Ki^multi (Human plasmin; plasmin, S-2251 100-500 μM): 509
fold stronger than m-dPEG4-AMB (plasmin inhibition) (Human plasmin; plasmin, relative to m-dPEG4-AMB, S-2251 100-500 μM): over 7 fold
Ki (thrombin; [5]): 14.5 ± 6.7 µM
Ki (tPA): 230 ± 30 µM
Structure (SMILES): N=C(N)c1ccc(CNC(=O)CCOCCOCCOCCOCCNC(=O)[C@H]2CC[C@H](CN)CC2)cc1 [TXA-dPEG4-AMB]

Ki (tPA): 148 ± 0.9 µM
Structure (SMILES): N=C(N)c1ccc(N)cc1 [4-amino benzamidine, 4-Aminobenzamidine, reference compound]
